# Where two headings read alike, the source gives them in different places.
# Legend:
# Assay in all cases: Eurofins KINOMEscan profiling, 97 kinases
# [1] = biological target: 97 kinases (kinase named in endpoint) (Homo sapiens, UniProt O15075); conditions: read-out: % Ctrl, DCAMKL1
# [2] = biological target: 97 kinases (kinase named in endpoint) (Homo sapiens, UniProt Q16539); conditions: read-out: % Ctrl, p38-alpha
# [3] = biological target: 97 kinases (kinase named in endpoint) (Homo sapiens, UniProt Q9H4B4); conditions: read-out: % Ctrl, PLK3
# [4] = biological target: 97 kinases (kinase named in endpoint) (Homo sapiens, UniProt P11309); conditions: read-out: % Ctrl, PIM1
# [5] = biological target: 97 kinases (kinase named in endpoint) (Homo sapiens, UniProt Q05397); conditions: read-out: % Ctrl, FAK
# [6] = biological target: 97 kinases (kinase named in endpoint) (Homo sapiens, UniProt O14965); conditions: read-out: % Ctrl, AURKA
# [7] = biological target: 97 kinases (kinase named in endpoint) (Homo sapiens, UniProt P50750); conditions: read-out: % Ctrl, CDK9
# 97 kinases (kinase named in endpoint) (Homo sapiens, UniProt P50750), sequence (P50750 whole entry): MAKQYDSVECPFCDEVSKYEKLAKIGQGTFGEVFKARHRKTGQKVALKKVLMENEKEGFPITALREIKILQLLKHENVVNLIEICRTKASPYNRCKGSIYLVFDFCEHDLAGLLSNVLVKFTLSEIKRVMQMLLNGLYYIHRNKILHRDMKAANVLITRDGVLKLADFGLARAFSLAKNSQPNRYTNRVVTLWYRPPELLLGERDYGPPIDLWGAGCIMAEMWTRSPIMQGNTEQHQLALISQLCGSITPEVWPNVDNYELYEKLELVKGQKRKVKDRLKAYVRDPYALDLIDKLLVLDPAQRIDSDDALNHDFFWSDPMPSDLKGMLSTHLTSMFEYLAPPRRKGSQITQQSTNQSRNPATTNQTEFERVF
# [8] = biological target: 97 kinases (kinase named in endpoint) (Homo sapiens, UniProt P24941); conditions: read-out: % Ctrl, CDK2
# [9] = biological target: 97 kinases (kinase named in endpoint) (Homo sapiens, UniProt Q8NI60); conditions: read-out: % Ctrl, ADCK3
# [10] = biological target: 97 kinases (kinase named in endpoint) (Homo sapiens, UniProt P36507); conditions: read-out: % Ctrl, MEK2
# [11] = biological target: 97 kinases (kinase named in endpoint) (Homo sapiens, UniProt P36896); conditions: read-out: % Ctrl, ACVR1B
# [12] = biological target: 97 kinases (kinase named in endpoint) (Homo sapiens, UniProt P42336); conditions: read-out: % Ctrl, PIK3CA
# [13] = biological target: 97 kinases (kinase named in endpoint) (Homo sapiens, UniProt P00533); conditions: read-out: % Ctrl, EGFR
# 97 kinases (kinase named in endpoint) (Homo sapiens, UniProt P00533), sequence (P00533 25-1210): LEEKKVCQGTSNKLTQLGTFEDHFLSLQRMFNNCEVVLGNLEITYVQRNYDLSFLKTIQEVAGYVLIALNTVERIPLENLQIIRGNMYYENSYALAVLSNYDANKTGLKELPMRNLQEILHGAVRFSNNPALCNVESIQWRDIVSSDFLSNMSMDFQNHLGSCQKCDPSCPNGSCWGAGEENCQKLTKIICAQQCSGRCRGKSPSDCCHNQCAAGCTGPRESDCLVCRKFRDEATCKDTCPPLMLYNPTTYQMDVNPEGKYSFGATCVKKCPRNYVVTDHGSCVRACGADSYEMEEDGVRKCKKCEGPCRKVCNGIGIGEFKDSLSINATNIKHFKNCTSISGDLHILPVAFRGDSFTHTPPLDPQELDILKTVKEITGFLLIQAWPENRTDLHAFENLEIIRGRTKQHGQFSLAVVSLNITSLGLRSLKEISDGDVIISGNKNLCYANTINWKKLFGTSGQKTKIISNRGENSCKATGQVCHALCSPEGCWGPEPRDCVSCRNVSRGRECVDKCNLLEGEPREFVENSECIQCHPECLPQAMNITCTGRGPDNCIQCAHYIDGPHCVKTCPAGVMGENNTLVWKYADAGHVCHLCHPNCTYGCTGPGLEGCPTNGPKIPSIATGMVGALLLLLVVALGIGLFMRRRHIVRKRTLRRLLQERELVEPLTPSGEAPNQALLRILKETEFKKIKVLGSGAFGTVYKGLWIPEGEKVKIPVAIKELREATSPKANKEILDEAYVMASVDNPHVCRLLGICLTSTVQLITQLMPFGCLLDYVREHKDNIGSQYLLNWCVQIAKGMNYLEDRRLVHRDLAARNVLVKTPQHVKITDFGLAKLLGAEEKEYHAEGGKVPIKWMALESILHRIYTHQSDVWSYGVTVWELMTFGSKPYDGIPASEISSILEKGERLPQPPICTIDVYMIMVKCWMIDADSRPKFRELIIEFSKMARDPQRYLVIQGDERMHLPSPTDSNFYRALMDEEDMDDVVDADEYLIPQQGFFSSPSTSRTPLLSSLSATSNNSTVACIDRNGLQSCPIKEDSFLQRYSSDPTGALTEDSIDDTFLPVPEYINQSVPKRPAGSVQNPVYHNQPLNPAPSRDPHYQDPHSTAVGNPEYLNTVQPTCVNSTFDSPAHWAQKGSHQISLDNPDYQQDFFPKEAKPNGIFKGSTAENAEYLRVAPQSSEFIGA
# [14] = biological target: 97 kinases (kinase named in endpoint) (Homo sapiens, UniProt P04626); conditions: read-out: % Ctrl, ERBB2
# 97 kinases (kinase named in endpoint) (Homo sapiens, UniProt P04626), sequence (P04626 23-1255): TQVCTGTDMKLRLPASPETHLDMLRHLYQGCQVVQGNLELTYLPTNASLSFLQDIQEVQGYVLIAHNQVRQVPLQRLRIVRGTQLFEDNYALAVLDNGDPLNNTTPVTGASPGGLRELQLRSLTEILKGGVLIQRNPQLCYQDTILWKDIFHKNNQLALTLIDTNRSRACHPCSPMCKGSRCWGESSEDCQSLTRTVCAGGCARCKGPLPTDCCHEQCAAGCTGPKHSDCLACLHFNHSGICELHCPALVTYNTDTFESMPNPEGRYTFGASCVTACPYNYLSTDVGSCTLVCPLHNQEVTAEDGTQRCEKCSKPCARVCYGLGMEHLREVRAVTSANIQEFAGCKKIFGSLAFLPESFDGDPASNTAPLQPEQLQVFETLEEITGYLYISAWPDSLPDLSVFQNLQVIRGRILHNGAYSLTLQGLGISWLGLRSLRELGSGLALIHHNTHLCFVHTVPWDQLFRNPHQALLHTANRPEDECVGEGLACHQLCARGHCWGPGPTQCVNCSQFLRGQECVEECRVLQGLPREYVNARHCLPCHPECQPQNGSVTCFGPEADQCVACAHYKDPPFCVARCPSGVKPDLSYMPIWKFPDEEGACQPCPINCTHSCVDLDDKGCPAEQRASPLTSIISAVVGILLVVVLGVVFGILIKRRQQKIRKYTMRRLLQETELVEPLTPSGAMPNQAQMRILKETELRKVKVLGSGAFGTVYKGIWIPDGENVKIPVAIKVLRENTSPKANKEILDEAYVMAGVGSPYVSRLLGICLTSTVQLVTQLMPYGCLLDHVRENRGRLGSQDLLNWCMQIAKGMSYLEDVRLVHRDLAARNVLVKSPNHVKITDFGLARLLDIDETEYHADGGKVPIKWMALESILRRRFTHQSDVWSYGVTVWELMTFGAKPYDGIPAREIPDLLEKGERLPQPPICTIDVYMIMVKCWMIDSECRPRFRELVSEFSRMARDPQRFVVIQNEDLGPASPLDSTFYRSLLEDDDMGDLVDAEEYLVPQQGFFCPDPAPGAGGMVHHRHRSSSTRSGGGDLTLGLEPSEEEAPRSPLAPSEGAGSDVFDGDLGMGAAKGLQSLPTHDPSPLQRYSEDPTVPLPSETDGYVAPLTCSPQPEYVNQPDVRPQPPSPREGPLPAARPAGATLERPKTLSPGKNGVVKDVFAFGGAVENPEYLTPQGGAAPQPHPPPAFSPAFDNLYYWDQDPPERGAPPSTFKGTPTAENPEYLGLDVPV
# [15] = biological target: 97 kinases (kinase named in endpoint) (Homo sapiens, UniProt Q13177); conditions: read-out: % Ctrl, PAK2
# [16] = biological target: 97 kinases (kinase named in endpoint) (Homo sapiens, UniProt P00519)
# [17] = biological target: 97 kinases (kinase named in endpoint) (Homo sapiens, UniProt Q96GD4); conditions: read-out: % Ctrl, AURKB
# [18] = biological target: 97 kinases (kinase named in endpoint) (Homo sapiens, UniProt P31751); conditions: read-out: % Ctrl, AKT2
# [19] = biological target: 97 kinases (kinase named in endpoint) (Homo sapiens, UniProt P12931); conditions: read-out: % Ctrl, SRC
# 97 kinases (kinase named in endpoint) (Homo sapiens, UniProt P12931), sequence (P12931 whole entry): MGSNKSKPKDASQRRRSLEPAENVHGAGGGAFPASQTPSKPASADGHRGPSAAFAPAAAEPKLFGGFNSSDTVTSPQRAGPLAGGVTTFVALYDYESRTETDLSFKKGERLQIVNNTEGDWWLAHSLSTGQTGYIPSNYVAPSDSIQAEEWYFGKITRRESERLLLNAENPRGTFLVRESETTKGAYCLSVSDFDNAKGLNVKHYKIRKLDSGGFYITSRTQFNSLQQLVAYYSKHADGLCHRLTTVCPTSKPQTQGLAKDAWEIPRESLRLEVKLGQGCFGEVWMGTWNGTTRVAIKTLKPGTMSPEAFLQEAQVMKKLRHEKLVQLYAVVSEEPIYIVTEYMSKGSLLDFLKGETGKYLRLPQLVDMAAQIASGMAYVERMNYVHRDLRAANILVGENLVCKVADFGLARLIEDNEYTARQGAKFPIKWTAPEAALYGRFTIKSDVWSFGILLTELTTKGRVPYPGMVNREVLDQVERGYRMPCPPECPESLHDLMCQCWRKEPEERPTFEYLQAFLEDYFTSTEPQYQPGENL
# [20] = biological target: 97 kinases (kinase named in endpoint) (Homo sapiens, UniProt P04629); conditions: read-out: % Ctrl, TRKA
# [21] = biological target: 97 kinases (kinase named in endpoint) (Homo sapiens, UniProt Q9BXA7); conditions: read-out: % Ctrl, TSSK1B
# [22] = biological target: 97 kinases (kinase named in endpoint) (Homo sapiens, UniProt P07333); conditions: read-out: % Ctrl, CSF1R
# [23] = biological target: 97 kinases (kinase named in endpoint) (Homo sapiens, UniProt P00519, T315I); conditions: read-out: % Ctrl, ABL(T315I)-phosphorylated
# [24] = biological target: 97 kinases (kinase named in endpoint) (Homo sapiens, UniProt P30530); conditions: read-out: % Ctrl, AXL
# 97 kinases (kinase named in endpoint) (Homo sapiens, UniProt P30530), sequence (P30530 26-894): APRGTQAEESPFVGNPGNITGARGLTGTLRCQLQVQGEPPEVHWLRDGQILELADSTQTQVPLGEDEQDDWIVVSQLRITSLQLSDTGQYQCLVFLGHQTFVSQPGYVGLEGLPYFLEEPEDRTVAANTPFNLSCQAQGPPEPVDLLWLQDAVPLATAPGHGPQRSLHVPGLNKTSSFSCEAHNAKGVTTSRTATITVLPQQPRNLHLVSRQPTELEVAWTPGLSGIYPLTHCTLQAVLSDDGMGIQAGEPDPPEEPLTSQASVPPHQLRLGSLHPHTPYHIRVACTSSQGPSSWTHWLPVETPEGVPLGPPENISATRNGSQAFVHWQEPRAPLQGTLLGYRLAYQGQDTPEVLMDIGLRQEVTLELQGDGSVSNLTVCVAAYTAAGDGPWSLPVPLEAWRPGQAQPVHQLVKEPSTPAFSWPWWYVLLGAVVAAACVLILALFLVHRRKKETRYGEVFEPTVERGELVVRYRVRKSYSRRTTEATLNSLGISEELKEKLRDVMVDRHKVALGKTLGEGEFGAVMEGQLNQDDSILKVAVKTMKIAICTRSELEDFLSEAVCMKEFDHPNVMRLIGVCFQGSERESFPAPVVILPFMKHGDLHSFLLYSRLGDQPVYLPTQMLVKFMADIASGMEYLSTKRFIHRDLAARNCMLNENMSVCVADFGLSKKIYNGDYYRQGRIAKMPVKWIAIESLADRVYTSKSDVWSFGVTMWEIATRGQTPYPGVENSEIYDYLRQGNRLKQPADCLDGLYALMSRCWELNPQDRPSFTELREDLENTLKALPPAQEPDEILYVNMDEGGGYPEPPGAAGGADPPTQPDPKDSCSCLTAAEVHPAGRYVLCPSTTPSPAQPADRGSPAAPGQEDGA
# [25] = biological target: 97 kinases (kinase named in endpoint) (Homo sapiens, UniProt Q9BUB5); conditions: read-out: % Ctrl, MKNK1
# [26] = biological target: 97 kinases (kinase named in endpoint) (Homo sapiens, UniProt Q15831); conditions: read-out: % Ctrl, LKB1
# [27] = biological target: 97 kinases (kinase named in endpoint) (Homo sapiens, UniProt P52333); conditions: read-out: % Ctrl, JAK3(JH1domain-catalytic)
# [28] = biological target: 97 kinases (kinase named in endpoint) (Homo sapiens, UniProt Q06187); conditions: read-out: % Ctrl, BTK
# 97 kinases (kinase named in endpoint) (Homo sapiens, UniProt Q06187), sequence (Q06187 whole entry): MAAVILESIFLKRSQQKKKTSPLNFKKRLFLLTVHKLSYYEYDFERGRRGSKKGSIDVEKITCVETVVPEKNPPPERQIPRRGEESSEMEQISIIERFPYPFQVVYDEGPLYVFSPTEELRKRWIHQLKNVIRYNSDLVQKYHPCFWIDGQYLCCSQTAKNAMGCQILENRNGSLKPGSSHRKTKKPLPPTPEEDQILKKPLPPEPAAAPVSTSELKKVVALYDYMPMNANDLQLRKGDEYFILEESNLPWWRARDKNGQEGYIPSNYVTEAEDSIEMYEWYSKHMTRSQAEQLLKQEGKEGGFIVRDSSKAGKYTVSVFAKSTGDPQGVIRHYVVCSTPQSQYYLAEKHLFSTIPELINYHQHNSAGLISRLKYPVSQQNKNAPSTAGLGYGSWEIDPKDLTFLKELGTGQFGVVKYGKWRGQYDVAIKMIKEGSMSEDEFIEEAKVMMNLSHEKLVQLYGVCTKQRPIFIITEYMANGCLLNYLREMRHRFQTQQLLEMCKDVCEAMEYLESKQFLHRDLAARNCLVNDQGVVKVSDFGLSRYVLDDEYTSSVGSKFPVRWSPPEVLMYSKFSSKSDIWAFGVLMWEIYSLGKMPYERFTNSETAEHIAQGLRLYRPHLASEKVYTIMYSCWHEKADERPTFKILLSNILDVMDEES
# [29] = read-out: % Ctrl, ABL1-nonphosphorylated
# [30] = read-out: % Ctrl, ABL1-phosphorylated
SMILES,remaining binding at 1 µM [1] [%],remaining binding at 1 µM [2] [%],remaining binding at 1 µM [3] [%],remaining binding at 1 µM [4] [%],remaining binding at 1 µM [5] [%],remaining binding at 1 µM [6] [%],remaining binding at 1 µM [7] [%],remaining binding at 1 µM [8] [%],remaining binding at 1 µM [9] [%],remaining binding at 1 µM [10] [%],remaining binding at 1 µM [11] [%],remaining binding at 1 µM [12] [%],remaining binding at 1 µM [13] [%],remaining binding at 1 µM [14] [%],remaining binding at 1 µM [15] [%],"remaining binding at 1 µM [16, 29] [%]","remaining binding at 1 µM [16, 30] [%]",remaining binding at 1 µM [17] [%],remaining binding at 1 µM [18] [%],remaining binding at 1 µM [19] [%],other results
CCCCCCCCCCCCCC(=O)N[C@@H](CC(N)=O)C(=O)N[C@@H](CC(C)C)C(=O)N[C@]1(C)CCCCCCC=CCCC[C@@](C)(C(=O)N[C@@H](CCC(=O)O)C(=O)N[C@@H](CC(C)C)C(=O)N[C@@H](CC(N)=O)C(N)=O)NC(=O)[C@H](CC(C)C)NC(=O)[C@H](CC(C)C)NC(=O)[C@H](CCCNC(=N)N)NC(=O)[C@H](CC(=O)O)NC(=O)[C@H](CC(C)C)NC(=O)[C@H](CCC(=O)O)NC1=O [compound 2012],86,98,94,100,96,100,100,88,100,79,81,100,93,55,100,56,80,100,93,99,remaining binding at 1 µM [20]: 100%; remaining binding at 1 µM [21]: 98%; remaining binding at 1 µM [22]: 95%; remaining binding at 1 µM [23]: 100%; remaining binding at 1 µM [24]: 74%; remaining binding at 1 µM [25]: 100%; remaining binding at 1 µM [26]: 85%; remaining binding at 1 µM [27]: 83%; remaining binding at 1 µM [28]: 100%
CNC(=O)c1ccc(Nc2ncc(C(F)(F)F)c(NCc3nccnc3N(C)S(C)(=O)=O)n2)cc1 [defactinib],47,100,28,73,0.1,3.9,90,63,93,64,83,100,92,65,45,37,51,13,95,36,remaining binding at 1 µM [20]: 1%; remaining binding at 1 µM [21]: 82%; remaining binding at 1 µM [22]: 72%; remaining binding at 1 µM [23]: 4.9%; remaining binding at 1 µM [24]: 3.6%; remaining binding at 1 µM [25]: 100%; remaining binding at 1 µM [26]: 90%; remaining binding at 1 µM [27]: 0%; remaining binding at 1 µM [28]: 100%

# Reference: publication PMC11871066, “Structure-based discovery of hydrocarbon-stapled paxillin peptides that block FAK scaffolding in cancer” (Nature Communications, 2025)
